In US20210393724A1, “MEDICINE FOR TREATMENT OF PSORIASIS AND PRODUCTION METHOD THEREOF” (YEDITEPE UNIVERSITESI, priority 2018, published 2021):

Test system: IMQ-induced psoriasis inflammation
Assay: IMQ-induced psoriasis mouse model: PASI scoring, ear thickness, spleen/body weight
Format: in vivo, BALB/c mice
Conditions: MTX 1 mg/kg orally per day
Protocol: The cream named Aldara (Meda Pharma, 3M Health Care) containing 5% Imiquimib (IMQ) was administered once a day for 6 days on the shaved backs and right ears of 8-11 weeks old adult male BALB/c mice such that a total of 62.5 mg cream is applied per day per animal thereby psoriasis inflammation was produced in the animal model. Vaseline was applied to the shaved area of the animals in the control group. The positive control group received 1 mg/kg Mtx (Methotrexate) orally per day. The drug was administered orally at a dose of 5 mg/kg once a day during the experiment. Administration of the drug to the animals in the group where the semi-therapeutic effect of the drug was to be tested was initiated 1 day after the onset of induction of psoriasis with IMQ, and continued until the end of the experiment period. Body weight, and redness, flaking and thickening on the skin were daily measured and scored according to the Psoriasis Area Severity. Index (PASI) to monitor the general health status of the animals and the induction of psoriasis with IMQ. As required by the model, thickening of the right ear skin was also recorded on a regular basis since the day the experiments began. At the end of the application, animals were anesthetized by isoflurane and then euthanized by cervical dislocation. The size and weight of the spleen tissues were recorded.

CN(Cc1cnc2nc(N)nc(N)c2n1)c1ccc(C(=O)N[C@@H](CCC(=O)O)C(=O)O)cc1 [MTX, Methotrexate]
plaque formation (scaling) PASI score of IMQ-administered region on the back (as of the 4th day): decreased | total PASI score (as of the 4th day): Decrease | thickness PASI score of IMQ-administered region on the back (as of the 5th day): decreased
